In patent publication US12098139B2, “Chemokine receptor modulators and uses thereof” (RAPT Therapeutics, Inc., priority 2018, dated 2024):
Read-outs that look alike come from different tables or passages of the source. Each block holds one compound with its values, some of them ahead of it.

What was measured:
[1] = tested on: ovalbumin-induced pulmonary inflammation; assay: Murine model of ovalbumin-induced pulmonary inflammation (BALF cell counts and mediators); type: in vivo, mouse (female Balb/c); settings: for IL-5 levels in BALF: vs OVA group (FIG. 3)
Protocol: A study was performed to investigate the effects of daily oral administration of the compound 2-((R)-3-(1-(1-((R)-1-(2,4-Dichlorophenyl)ethyl)-3-(cyano)-1H-pyrazolo[3,4-b]pyrazin-6-yl)azetidin-3-yl)piperidin-1-yl)ethan-1-ol (FLX-A-12) (disclosed in US Patent Publication 2018-0072740 published Mar. 15, 2018) and the compound (1R,3r)-3-((R)-3-(1-(5-chloro-4-(((R)-1-(2,4-dichlorophenyl)ethyl)amino)-6-methylpyrimidin-2-yl)azetidin-3-yl)piperidin-1-yl)-1-methylcyclobutane-1-carboxylic acid (FLX-B-10) (disclosed in Example 38 herein) on the level of lung eosinophilia in a murine model of ovalbumin-induced pulmonary inflammation. An automated system of haematological cellular analysis (DASIT Sysmex XT-2000iV) was used to perform total and differential cell counts and assess the degree of ovalbumin challenge-induced pulmonary eosinophilia. FLX-A-12 and FLX-B-10 were administered daily for five days at the doses of 50 and 30-100 mg/kg respectively, and eosinophilic inflammation was measured 24 hours after the last ovalbumin challenge. Dexamethasone was included as a positive reference substance (3 mg/kg p.o. daily). On days 20-23 inclusive, mice received vehicle (30% PG in water), reference compound (Dexamethasone, 3 mg/kg) and test compounds (FLX-A-12 at 50 mg/kg and FLX-B-10 at 30 and 100 mg/kg), 1 hr prior ovalbumin challenge via the p.o. route. In addition, the test compounds (FLX-A-12 and FLX-B-10) were dosed on day 19 24 hr prior to the dosing on day 20.
FLX-A-12 was formulated at the concentration of 5 mg/mL (corresponding to the dose of 50 mg/kg in a dose volume of 10 mL/kg) in 30% PG in water. The doses of FLX-B-10 (30 and 100 mg/kg) were prepared by dissolving 3 and 10 mg/ml of the compound respectively in 30% PG in water at a dose volume of 10 ml/kg. The dose of Dexamethasone (3 mg/kg) was prepared by dissolving 0.3 mg/mL of the compound in 30% PG in water at a dose volume of 10 ml/kg.
The effects of FLX-A-12 and FLX-B-10 were assessed in the ovalbumin mouse model of pulmonary inflammation. The study was performed in female Balb/c mice, and included the following 6 treatment groups (n=10/group): (i) Vehicle group: challenged with saline and dosed with compound Vehicle, 1 hr before challenge; (ii) OVA/Vehicle group (control): challenged with ovalbumin and dosed with compound Vehicle, 1 hr before challenge; (iii) OVA/FLX-A-12 50 mg/kg (p.o.): challenged with ovalbumin and dosed with FLX-A-12, 1 hr before challenge; (iv) OVA/FLX-B-10 30 mg/kg (p.o.): challenged with ovalbumin and dosed with FLX-B-10, 1 hr before challenge; (v) OVA/FLX-B-10 100 mg/kg (p.o.): challenged with ovalbumin and dosed with FLX-B-10, 1 hr before challenge; and (vi) Dexamethasone 3 mg/kg (p.o.) group: challenged with ovalbumin and dosed with Dexamethasone, 1 hr before challenge.
The eosinophilic inflammation induced by ovalbumin-challenge (i.n.) was measured as cell count increase in bronchoalveolar lavage fluid (BALF) using an automated system of haematological cellular analysis (DASIT Sysmex XT-2000iV) at 24 hours after the last OVA-challenge. The effects of the test compounds were evaluated as ability to decrease the eosinophilic inflammation with respect to the OVA group.
For antigen sensitization, on day 1, animals received 10 μg of OVA in 2 mg of Aluminium hydroxide hydrate (AlOH3) at a dose volume of 200 μl per mouse subcutaneously (s.c.). On day 14, all animals got a second (boost) s.c. injection with the same dose of Alum/OVA as above.
On days 20-23 inclusive, mice received vehicle, 30% PG in water, reference compound (Dexamethasone 3 mg/kg) and test compounds (FLX-A-12 at 50 mg/kg and FLX-B-10 at 30 and 100 mg/kg), 1 hr prior OVA challenge via the p.o. route. In addition, test compounds (FLX-A-12 and FLX-B-10) were dosed on day 19, 24 hr prior to the dosing on day 20. All compounds were administered at a dose volume of 10 ml/kg. Dose volumes were calculated based on individual animal weight. […]

[2] = biological target: T1, hCCR4 (Chem5-hCCR4 cells) (Homo sapiens, UniProt P51679); assay: Calcium flux assay (CCL22-stimulated, FLIPR Calcium 6 dye); type: cell-based; settings: read-out: Potency (IC50)
T1 sequence (P51679 1-360): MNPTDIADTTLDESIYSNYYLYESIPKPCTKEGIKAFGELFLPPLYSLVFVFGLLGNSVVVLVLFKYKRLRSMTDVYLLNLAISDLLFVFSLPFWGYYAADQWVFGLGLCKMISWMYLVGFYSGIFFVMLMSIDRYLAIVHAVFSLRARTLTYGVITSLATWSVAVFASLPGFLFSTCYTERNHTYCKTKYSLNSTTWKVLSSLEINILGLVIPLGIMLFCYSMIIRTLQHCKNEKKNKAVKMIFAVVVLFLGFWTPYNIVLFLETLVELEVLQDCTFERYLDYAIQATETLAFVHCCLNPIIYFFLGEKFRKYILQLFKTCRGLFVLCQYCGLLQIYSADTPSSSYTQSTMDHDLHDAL
How it was run: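 Chem5-hCCR4 cells were serum-starved 2 h and loaded 2 h with Calcium 6 dye plus 2.5 mM probenecid. They were then preincubated 1 h at 37 °C with compound (0.5% DMSO). CCL22 was added from a 7.5 nM working solution (5× EC80), and ΔF/Fmin at 485/525 nm was fitted 4-parameter for IC50.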

Compound: Cc1nc(N2CC([C@H]3CCCN([C@H]4C[C@](C)(C(=O)O)C4)C3)C2)nc(N[C@H](C)c2ccc(Cl)cc2Cl)c1Cl [FLX-B-10, (1R,3r)-3-((R)-3-(1-(5-chloro-4-(((R)-1-(2,4-dichlorophenyl)ethyl)amino)-6-methylpyrimidin-2-yl)azetidin-3-yl)piperidin-1-yl)-1-methylcyclobutane-1-carboxylic acid]
CCL-22 in BALF ([1]; 30 mg/kg p.o. (FIG. 6)): significantly reduced in all conditions, except for FLX-B-10 at 30 mg/kg
IL-5 levels in BALF ([1]; 100 mg/kg p.o.): significantly reduced
IL-13 in BALF, dose dependence ([1]; 30 and 100 mg/kg p.o. (FIG. 4)): dose-dependent decrease
CCL-22 in BALF, dose dependence ([1]; 30 and 100 mg/kg p.o. (FIG. 6)): dose-dependent decrease
reduction of eosinophilic inflammation (BALF) with respect to the OVA group ([1]; 30 and 100 mg/kg p.o., 24 hours after last ovalbumin challenge): statistically significant reduction of eosinophilic inflammation only at 100 mg/kg

Compound: C[C@H](c1ccc(Cl)cc1Cl)n1nc(C#N)c2ncc(N3CC([C@H]4CCCN(CCO)C4)C3)nc21 [FLX-A-12, 2-((R)-3-(1-(1-((R)-1-(2,4-Dichlorophenyl)ethyl)-3-(cyano)-1H-pyrazolo[3,4-b]pyrazin-6-yl)azetidin-3-yl)piperidin-1-yl)ethan-1-ol, reference compound]
IL-5 levels in BALF ([1]; 50 mg/kg p.o.): significantly reduced

Compound: C[C@@H]1C[C@H]2[C@@H]3CCC4=CC(=O)C=C[C@]4(C)[C@@]3(F)[C@@H](O)C[C@]2(C)[C@@]1(O)C(=O)CO [Dexamethasone, dexamethasone, reference compound]
percentage of reduction in the eosinophilic cell count in BALF ([1]; 3 mg/kg p.o. daily, 24 hours after last ovalbumin challenge, vs OVA group): 92%

Compound: Cc1cnc(N2CC([C@H]3CCCN([C@H]4C[C@](C)(C(=O)O)C4)C3)C2)nc1N[C@H](C)c1ccc(Cl)cc1Cl [Example 36, (1R,3r)-3-((R)-3-(1-(4-(((R)-1-(2,4-dichlorophenyl)ethyl)amino)-5-methylpyrimidin-2-yl)azetidin-3-yl)piperidin-1-yl)-1-methylcyclobutane-1-carboxylic acid]
IC50 ([2]; Table 3, CCL22 1.5 nM): 100 to 500 nM

Compound: CCOC(=O)c1cnc(N2CC([C@H]3CCCN(CCO)C3)C2)nc1N[C@H](C)c1ccc(Cl)cc1Cl [Example 32, ethyl 4-(((R)-1-(2,4-dichlorophenyl)ethyl)amino)-2-(3-((R)-1-(2-hydroxyethyl)piperidin-3-yl)azetidin-1-yl)pyrimidine-5-carboxylate]
IC50 ([2]; Table 3, CCL22 1.5 nM): < 100 nM

Compound: Cc1nc(N2CC([C@H]3CCCN([C@H]4C[C@@H](C(=O)O)C4)C3)C2)nc(N[C@H](C)c2ccc(Cl)cc2Cl)c1C [Example 30, (1S,3s)-3-((R)-3-(1-(4-(((R)-1-(2,4-dichlorophenyl)ethyl)amino)-5,6-dimethylpyrimidin-2-yl)azetidin-3-yl)piperidin-1-yl)cyclobutane-1-carboxylic acid]
IC50 ([2]; Table 3, CCL22 1.5 nM): 100 to 500 nM

Other lines, results leading:

IC50 ([2]; Table 3, CCL22 1.5 nM): < 100 nM
Compound: C[C@@H](Nc1nc(N2CC([C@H]3CCCN([C@H]4C[C@](C)(C(=O)O)C4)C3)C2)ncc1C(F)(F)F)c1ccc(Cl)cc1Cl [Example 39, (1R,3r)-3-((R)-3-(1-(4-(((R)-1-(2,4-dichlorophenyl)ethyl)amino)-5-(trifluoromethyl)pyrimidin-2-yl)azetidin-3-yl)piperidin-1-yl)-1-methylcyclobutane-1-carboxylic acid]

IC50 ([2]; Table 3, CCL22 1.5 nM): < 100 nM
Compound: C[C@@H](Nc1nc(N2CC([C@H]3CCCN([C@H]4C[C@](C)(C(=O)O)C4)C3)C2)ncc1Br)c1ccc(F)cc1Cl [Example 45, (1R,3r)-3-((R)-3-(1-(5-bromo-4-(((R)-1-(2-chloro-4-fluorophenyl)ethyl)amino)pyrimidin-2-yl)azetidin-3-yl)piperidin-1-yl)-1-methylcyclobutane-1-carboxylic acid]

IC50 ([2]; Table 5, CCL22 1.5 nM): < 100 nM
Compound: C[C@@H](Nc1nc(N2CC([C@H]3CCCN(C4CC(C)(C(=O)O)C4)C3)C2)ncc1C1CC1)c1ccc(Cl)cc1Cl (single isomer, unassigned) [Example 54]
